Holding throughout (assay type): in vivo, Drosophila melanogaster
Test [1] relates to FS flies lacking dfmr1 activity. Kind of test: Short-term memory (60 mins) with mated female targets, FS flies. Conditions: for short-term memory, mated female target: 86 μM MPEP, 400 nM LY341495, 573 μM MPPG, 348 μM MTPG; for memory at 60 minutes post training, mated female target: 5 day old, 8.6 mM MPEP, 400 nM LY341495. The procedure: Effects of drug treatment on short-term memory (60 mins) in flies lacking dfmr1 activity with mated female targets. Short-term (60 min.) memory was measured in Rescue and FS flies that were either fed control food or underwent various drug treatments as described below. Short-term memory was measured by placing a trained male in a holding chamber for 60 minutes (after being trained for one hour with a previously mated female), then subsequently placing him in a testing chamber with a mated female target for a ten-minute courtship interval (C.I.). This C.I. was compared to the C.I. obtained for naïve courtship of a previously mated female, i.e., C.I. during the first 10 minutes of the training session with a previously mated female. Additionally, for reference the C.I. during the last 10 minutes of the training period was also determined. Numbers of flies are indicated above each bar for all groups. The levels of significance are indicated as follows; *=p<0.05; **=p<0.005; ***=p<0.0001.
Restoration of short-term memory with mGluR antagonists. To establish that the failure to observe memory was not due to a problem with recognizing or processing the appropriate cues from the virgin female target, we used a modified version of the conditioned courtship paradigm where the male is paired with a mated female target subsequent to training (Kane et al., 1997; Joiner and Griffith, 1997; Joiner and Griffith, 1999; Kamashev et al., 1999). Again, with pharmacologic treatment it is necessary to utilize more then one compound to confirm the specificity of the target, so in this case we used four mGluR antagonists. […] It is also important to note that the robust deficit in synaptic plasticity in FS flies, with regard to memory, is a critical extension of the previous models of Fragile X syndrome in model organisms, since this is one of the most prominent aspects of the human disorder. Furthermore, we have shown that antagonism of the mGluRs can restore synaptic plasticity in the Drosophila model of Fragile X syndrome.

Test [2] concerns Rescue (dFMR1-3+wild type rescue fragment) flies. Kind of test: Naive courtship behavior (courtship index toward virgin female), Rescue flies. To be noted: for naive courtship: MPEP 20 μg/ml, LY341495 400 nM in food. The source says:
(§1) Learning and memory (cognitive abilities) can be examined in Drosophila by utilizing several available learning and memory paradigms. The most popular is a classical conditioning paradigm in which the flies learn to associate electric shocks with olfactory cues (Dudia et al, 1976; Davis, 1993; Tully, 1994). An alternative paradigm to study learning and memory in Drosophila is called conditioned courtship, wherein a male fly learns to modify his courtship behavior after experience with an unreceptive female; it is a multi-sensory paradigm involving associations from more then one sensory input (Siegel and Hall, 1979; for review see Hall, 1994). It is a more complex associative learning paradigm and was utilized to assay learning and memory in this article to elucidate the role of dFMR1 in learning and memory (Tompkins et al, 1980; Tompkins et al, 1982; Tompkins et al, 1983; Tompkins et al, 1984; Ackerman and Siegel, 1986). Courting male flies perform a characteristic sequence of behaviors: orienting toward and following the female, tapping her with his forelegs, vibrating one or both wings, licking her genitalia, and attempting copulation (Sturtevant, 1915; Bastock and Manning, 1955; Bastock, 1956). These behaviors are repeated with some variation until successful copulation occurs. Virgin females will generally respond by mating; however, recently mated females will be unreceptive and will not allow copulation to occur (Spieth, 1974), they display different behaviors (Bastock and Manning, 1955; Connolly and Cook, 1973) and have an altered, although somewhat overlapping, pheromonal profile (Cobb and Ferveur, 1996). The naive male will find a previously mated female to have a pheromonal repertoire that is less provocative then that of a virgin female target. A naive male paired with a mated female will initially court her, but his courtship activity soon decreases; after 1 hour of experience with the mated female, his courtship when subsequently paired with a virgin female remains depressed for 2-3 hours (Siegel and Hall, 1979). This effect is not a general suppression of all courtship activity since a male's tendency to court an immature male is not suppressed (Gailey et al, 1984). […] These behaviors are quantified as a courtship index (CI) which is defined as the percentage of time a male fly spends performing any of the six courtship steps toward a target female in a ten minute test period. A decrease in CI after training with a previously mated female is indicative of behavioral plasticity in the form of learning or memory.
(§2) Since we use female targets that are not etherized (therefore they are freely moving), and the w118 and dfmr1-3 flies may have slightly impaired visual acuity due to lack of eye pigmentation, and since visual inputs affect courtship behavior, all subsequent experiments were done utilizing only the genotypes Rescue: dfmr1-3+wild type rescue fragment, and FS: dfmr1-3+frame shifted rescue fragment. Both of these genotypes have more pigmentation and similar levels of eye pigmentation to each other. For FIGS. 4 and 5, a high concentration of MPEP (1,000 μg/ml) was used. For the remainder of the experiments the food was either control (CT) or exactly the same control food containing the appropriate concentration of MPEP (M). The position of the CT and the M are indicative of the point at which the group was on the particular food. The first letter indicates the food type that the larvae grew up on, and the second letter denotes the food type that the adult flies were placed on within four hours of eclosion, and for the four following days, until the day before testing when they were placed on fresh food.
In order to determine if MPEP can get into the Drosophila central nervous system (CNS) through feeding behavior, we mixed MPEP into the food at a concentration of 1,000 μg/ml ([…]). Males were raised on CT food and then placed on either CT or M food. […]

Test [3] concerns FS (dFMR1-3+frame shifted rescue fragment) flies. Briefly: Naive courtship behavior (courtship index toward virgin female), FS flies. To be noted: for naive courtship: MPEP 20 μg/ml, LY341495 400 nM in food.
Excerpt: as §1
as §2, with “and for the four following days, until the day before testing when they were placed on” left out
Naive males were placed in the training chamber for one hour with no female, and then placed with a virgin target female for a ten-minute interval. The naive courtship behavior was reduced by high MPEP concentration in Rescue (p<0.0001) and FS (p<0.0005) lines, and it was depressed to similar levels by high MPEP treatment in the Rescue and FS groups (FIG. 2A). […]

[4] abbreviates: 5 day old, MPEP 200 μg/ml (86.6 μM) in development, with or without adulthood (M-M, M-CT).
[5] abbreviates: 5 day old, MPEP 1,000 μg/ml (433.0 μM) in food in adulthood (CT-M).

As for `CC(N)(C(=O)O)c1ccc(-c2nnn[nH]2)cc1` (racemic) [MTPG, (RS)-α-methyl-4-tetrazolylphenylglycine], in test [1], the “short-term memory, mated female target” value is given as “demonstrated restoration of short-term memory” and the “memory at 60 minutes post training, mated female target” value (shortened to “memory at 60 minutes post training”) is on record as “demonstrate memory at 60 minutes post training”. The naive courtship activity result in test [2] (5 day old adults, 573 mM MPPG or 348 μM MTPG, p<0.0001 for both) is reported as “significant decrease in courtship activity”. Also, the naive courtship activity entry in test [3] (5 day old adults, 573 mM MPPG (p<0.0001) or 348 μM MTPG (p<0.005)) is “significant increase in courtship activity”.

Regarding `N[C@](CC1c2ccccc2Oc2ccccc21)(C(=O)O)[C@H]1C[C@@H]1C(=O)O` [LY341495, (2S)-2-amino-2-[(1S,2S)-2-carboxycycloprop-1-yl]-3-(xanth-9-yl) propionic acid], in test [1], the “short-term memory, mated female target” value is listed as “demonstrated restoration of short-term memory”. For the same compound, the “memory at 60 minutes post training” value in test [1] was “demonstrate memory at 60 minutes post training”. The naive courtship entry in test [2] (5 day old) is on record as “suppressed naive courtship”; in test [3] (5 day old), “significantly increased naive courtship”.

Take `Cc1cccc(C#Cc2ccccc2)n1` [MPEP, 2-methyl-6-(phenylethynyl)pyridine]: in test [1], the “short-term memory, mated female target” value is on record as “demonstrated restoration of short-term memory”. Besides, in test [1], the “memory at 60 minutes post training” value is on record as “demonstrate memory at 60 minutes post training”. For the same compound, the results for the naive courtship result in test [2] (5 day old) and in test [3] (5 day old) were “suppressed naive courtship” and “significantly increased naive courtship”, respectively. The naive courtship activity entry in test [2] (5 day old, MPEP 200 μg/ml (86.6 μM) in adulthood only (CT-M), p<0.0001) was “depressed relative to CT-CT Rescue flies”; in test [2] (setting [4]) it was “courted as vigorously as CT-CT Rescues flies”; in test [3] (20-day-old, MPEP (86.6 μM) in adulthood only (CT-M)), “significant increase in courtship activity”; in test [3] (20-day-old, MPEP (86.6 μM) in development and adulthood (M-M)), “significant increase in courtship activity”; in test [3] (20-day-old, MPEP (86.6 μM) in development only (M-CT)), “did not demonstrate an increase in naive courtship activity”; in test [3] (setting [4]) it was “courtship levels similar to CT-CT Rescue flies”. Moreover, the naive courtship activity entry in test [3] (5 day old, MPEP 200 μg/ml (86.6 μM) in food in adulthood only (CT-M), p<0.005) was “significant increase in courtship activity”. The naive courtship behavior result in test [2] (setting [5]) and in test [3] (setting [5]) was “reduced” each time.
